Values of other authors, collected in patent publication US20020192774A1, “Method for processing lignocellulosic material” (priority 2000, published 2002).

Test system: yeast
Settings: pH values as low as 4.5; Taherzadeh et al., 1997

With CC(=O)O [Acetic acid] as the compound, how does the “acetate concentration at which yeast is able to grow” value read?
Its value is 10 g acetate per litre.
